We go through four compounds from PMC6695897, “Synthesis and In Vitro Screening of Novel Heterocyclic β-D-Gluco- and β-D-Galactoconjugates as Butyrylcholinesterase Inhibitors” (Molecules, 2019).

Read-outs that look alike come from different tables or passages of the source.

This assay addresses T1, horse serum butyrylcholinesterase (BChE) (Equus caballus, UniProt P81908).
T1 construct: native enzyme from horse serum, lyophilised, commercial (Sigma-Aldrich), untagged
Put plainly: Ellman assay, global fit to mixed inhibition model. Format: biochemical. As to conditions: for Ki: read-out: Ki ± SEM (μM) ^1. From the text:
Ellman assay, global fit to mixed inhibition model on horse serum butyrylcholinesterase (BChE)
Background: In Ellman's method for cholinesterases, released thiocholine reacts with DTNB.

T1 sequence (P81908 whole entry): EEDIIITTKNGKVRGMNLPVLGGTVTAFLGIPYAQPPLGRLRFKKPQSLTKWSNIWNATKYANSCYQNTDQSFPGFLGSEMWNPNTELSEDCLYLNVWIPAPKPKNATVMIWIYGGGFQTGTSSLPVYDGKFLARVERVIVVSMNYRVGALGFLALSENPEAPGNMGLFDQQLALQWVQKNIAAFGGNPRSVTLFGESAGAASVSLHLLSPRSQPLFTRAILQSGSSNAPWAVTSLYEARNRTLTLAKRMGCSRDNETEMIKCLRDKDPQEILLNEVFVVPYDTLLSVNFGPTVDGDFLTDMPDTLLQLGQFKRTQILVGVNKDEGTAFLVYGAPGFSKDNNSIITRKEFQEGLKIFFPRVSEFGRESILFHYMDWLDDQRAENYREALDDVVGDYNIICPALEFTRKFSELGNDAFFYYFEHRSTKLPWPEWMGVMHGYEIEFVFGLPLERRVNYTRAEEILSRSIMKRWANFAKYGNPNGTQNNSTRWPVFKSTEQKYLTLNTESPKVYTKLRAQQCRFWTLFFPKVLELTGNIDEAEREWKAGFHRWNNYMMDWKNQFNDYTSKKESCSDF

One may read the Ki as the equilibrium dissociation constant of an inhibitor or competing ligand from its target. As to `OC[C@H]1O[C@@H](OCC[n+]2cn(Cc3ccccc3)c3ccccc32)[C@H](O)[C@@H](O)[C@@H]1O` [compound 7, N1-benzyl-N3-[2-(β-D-glucopyranozyloxy)ethyl]benzimidazolium bromide], the Ki was determined as 52 ± 3 µM. Consider `OC[C@H]1O[C@@H](OCCn2cnc3ccccc32)[C@H](O)[C@@H](O)[C@H]1O` [compound 12, N1-[2-(β-D-galactopyranozyloxy)ethyl]benzimidazole], for which the “Ki ± SEM (μM) ^1” value (acetylthiocholine 0.04–1 mM, DTNB 0.3 mM, 0.1 M sodium phosphate pH 7.4, 25 °C, unreliable (extrapolated beyond tested 15–170 μM)) was 782 ± 306 µM. As to `OC[C@H]1O[C@@H](OCC[n+]2cn(Cc3ccccc3)c3ccccc32)[C@H](O)[C@@H](O)[C@H]1O` [compound 14, N1-benzyl-N3-[2-(β-D-galactopyranozyloxy)ethyl]benzimidazolium bromide], the Ki turned out to be 26 ± 2.7 µM. For the compound `OC[C@H]1O[C@@H](OCCn2cnc3ccccc32)[C@H](O)[C@@H](O)[C@@H]1O` [compound 5, N1-[2-(β-D-glucopyranozyloxy)ethyl]benzimidazole], the inhibitory constant (Ki) (acetylthiocholine 0.04–1 mM, DTNB 0.3 mM, 0.1 M sodium phosphate pH 7.4, 25 °C, mixed) came out at 16 ± 1.6 µM.
